{"source": "patent US20250302816A1", "about": "“DISRUPTION OF EPITHELIAL BARRIERS FOR MOLECULAR DELIVERY ENHANCEMENT OR EXTRACTION OF EXTRACELLULAR FLUIDS” (The University of Nottingham, priority 2022, published 2025)", "system": "MMP", "experiment": "Fluorogenic MMP activity assay", "assay_type": "cell-based, human", "protocol": "FIG. 5: High-throughput MMP assay (MMP Activity Assay Kit (Fluorometric-Red), Abcam #ab112147) showing the normalised accumulation slope of FRET-based signal (Ex540: Em590 nm) read at 5 minute intervals for one hour in adherent Calu-3 cells cultured in glass-bottomed 96-well plates using a SpectraMax i3x/Biomek FXPP high-throughput platform. Each experiment was conducted in triplicate (error bars). Signal accumulation over time in each well was linearly fitted and the gradient of each fit was scaled against the gradient of the relevant positive control wells, to which active MMP was added directly (mixed isoforms, […]), to obtain the normalised accumulation slope.\nTo investigate the involvement of MMP in the disruption of tight junctions observed in the presence of 200 μM 3OC12-HSL and C7 PQS, a fluorogenic MMP activity assay was performed, using the Amplite™ Universal Fluorimetric MMP Activity Assay Kit. This kit is designed to check the general activity of a MMP enzyme.\nFollowing treatment with 3OC12-HSL and C7 PQS respectively, the conditioned media were collected every hour from apical chamber and MMP activity was determined by using Amplite™ Universal Fluorimetric MMP Activity Assay Kit Green Fluorescence according to the manufacturer's instructions.\nA fluorogenic MMP activity assay was carried out in the same manner on further agents.", "data": [{"smiles": "CCCCCCCCCC(=O)CC(=O)N[C@H]1CCOC1=O", "note": "[Agent 3OC12-HSL, N-(3-oxododecanoyl) homoserine lactone]", "values": [{"measurement": "MMP activation in apical samples taken at one-hour intervals", "setting": "200 μM, p<0.01, no fluorescence in control samples", "result": "significant MMP activation"}, {"measurement": "period over which MMP activation increased before starting to reduce", "setting": "samples taken hourly from apical chamber", "result": 4, "unit": "h"}]}]}
